Assays:
Assay in all cases: radiometric filter-binding kinase assay, Kinaseprofiler
PKN2 (human) = PKN2 (human) (UniProt Q16513); conditions: compound 1.0 µM; ATP 15 µM
RPS6KA4 KD1 KD2 (human) = RPS6KA4 KD1 KD2 (human) (UniProt O75676); conditions: compound 1.0 µM; ATP 45 µM
[1] = test system: TEK (human), Q02763 [Q939H/Q940H]; conditions: compound 1.0 µM; ATP 200 µM
PRKCG (human) = PRKCG (human) (UniProt P05129); conditions: compound 1.0 µM; ATP 15 µM
PDGFRA (human) = PDGFRA (human) (UniProt P16234); conditions: compound 1.0 µM; ATP 120 µM
FYN (human) = FYN (human) (UniProt P06241); conditions: compound 1.0 µM; ATP 70 µM
SRPK2 (human) = SRPK2 (human) (UniProt P78362); conditions: compound 1.0 µM; ATP 10 µM
ITK (human) = ITK (human) (UniProt Q08881); conditions: compound 1.0 µM; ATP 200 µM
[2] = test system: MARK1 (human), Q9P0L2 [V16E/T20S]; conditions: compound 1.0 µM; ATP 10 µM
[3] = target: CSNK2A1 CSNK2B CSNK2A2 (human) (UniProt P19784+P68400+P67870); conditions: compound 1.0 µM; ATP 15 µM
RPS6KA5 KD1 KD2 (human) = RPS6KA5 KD1 KD2 (human) (UniProt O75582); conditions: compound 1.0 µM; ATP 90 µM
RPS6KA2 KD1 KD2 (human) = RPS6KA2 KD1 KD2 (human) (UniProt Q15349); conditions: compound 1.0 µM; ATP 10 µM
[4] = test system: BLK (human), P51451 [M278V]; conditions: compound 1.0 µM; ATP 45 µM
NEK11 (human) = NEK11 (human) (UniProt Q8NG66); conditions: compound 1.0 µM; ATP 200 µM
FGFR1 (human) = FGFR1 (human) (UniProt P11362); conditions: compound 1.0 µM; ATP 200 µM
PDGFRB (human) = PDGFRB (human) (UniProt P09619); conditions: compound 1.0 µM; ATP 200 µM
STK24 (human) = STK24 (human) (UniProt Q9Y6E0); conditions: compound 1.0 µM; ATP 15 µM
[5] = test system: EPHB2 (human), P29323 [A848S/K918E]; conditions: compound 1.0 µM; ATP 10 µM
CDK1 CCNB1 (human) = CDK1 CCNB1 (human) (UniProt P06493+P14635); conditions: compound 1.0 µM; ATP 45 µM
[6] = test system: ROS1 (human), P08922 [V2262A]; conditions: compound 1.0 µM; ATP 200 µM
HIPK3 (human) = HIPK3 (human) (UniProt Q9H422); conditions: compound 1.0 µM; ATP 15 µM
BMX (human) = BMX (human) (UniProt P51813); conditions: compound 1.0 µM; ATP 45 µM
PRKD1 (human) = PRKD1 (human) (UniProt Q15139); conditions: compound 1.0 µM; ATP 45 µM
YES1 (human) = YES1 (human) (UniProt P07947); conditions: compound 1.0 µM; ATP 45 µM
CAMK4 (human) = CAMK4 (human) (UniProt Q16566); conditions: compound 1.0 µM; ATP 10 µM
[7] = test system: PAK2 (human), Q13177 [L150F, P225T, V383I; A339 del]; conditions: compound 1.0 µM; ATP 90 µM
SGK3 (human) = SGK3 (human) (UniProt Q96BR1); conditions: compound 1.0 µM; ATP 155 µM
[8] = test system: EEF2K (human), O00418 [H23R]; conditions: compound 1.0 µM; ATP 15 µM
NTRK1 (human) = NTRK1 (human) (UniProt P04629); conditions: compound 1.0 µM; ATP 120 µM
PLK3 (human) = PLK3 (human) (UniProt Q9H4B4); conditions: compound 1.0 µM; ATP 70 µM
PDPK1 (human) = PDPK1 (human) (UniProt O15530); conditions: compound 1.0 µM; ATP 10 µM
[9] = test system: MAPKAPK5 (human), Q8IW41 [R291E]; conditions: compound 1.0 µM; ATP 15 µM
CSNK2A2 (human) = CSNK2A2 (human) (UniProt P19784); conditions: compound 1.0 µM; ATP 10 µM
NEK7 (human) = NEK7 (human) (UniProt Q8TDX7); conditions: compound 1.0 µM; ATP 45 µM
[10] = test system: FLT3 (human), P36888 [D835Y]; conditions: compound 1.0 µM; ATP 200 µM
RPS6KA3 KD1 KD2 (human) = RPS6KA3 KD1 KD2 (human) (UniProt P51812); conditions: compound 1.0 µM; ATP 10 µM
CDK9 CCNT1 (human) = CDK9 CCNT1 (human) (UniProt P50750+O60563); conditions: compound 1.0 µM; ATP 45 µM

Chain of TEK (human), Q02763 [Q939H/Q940H] (Q02763 whole entry Q939H/Q940H, looked up): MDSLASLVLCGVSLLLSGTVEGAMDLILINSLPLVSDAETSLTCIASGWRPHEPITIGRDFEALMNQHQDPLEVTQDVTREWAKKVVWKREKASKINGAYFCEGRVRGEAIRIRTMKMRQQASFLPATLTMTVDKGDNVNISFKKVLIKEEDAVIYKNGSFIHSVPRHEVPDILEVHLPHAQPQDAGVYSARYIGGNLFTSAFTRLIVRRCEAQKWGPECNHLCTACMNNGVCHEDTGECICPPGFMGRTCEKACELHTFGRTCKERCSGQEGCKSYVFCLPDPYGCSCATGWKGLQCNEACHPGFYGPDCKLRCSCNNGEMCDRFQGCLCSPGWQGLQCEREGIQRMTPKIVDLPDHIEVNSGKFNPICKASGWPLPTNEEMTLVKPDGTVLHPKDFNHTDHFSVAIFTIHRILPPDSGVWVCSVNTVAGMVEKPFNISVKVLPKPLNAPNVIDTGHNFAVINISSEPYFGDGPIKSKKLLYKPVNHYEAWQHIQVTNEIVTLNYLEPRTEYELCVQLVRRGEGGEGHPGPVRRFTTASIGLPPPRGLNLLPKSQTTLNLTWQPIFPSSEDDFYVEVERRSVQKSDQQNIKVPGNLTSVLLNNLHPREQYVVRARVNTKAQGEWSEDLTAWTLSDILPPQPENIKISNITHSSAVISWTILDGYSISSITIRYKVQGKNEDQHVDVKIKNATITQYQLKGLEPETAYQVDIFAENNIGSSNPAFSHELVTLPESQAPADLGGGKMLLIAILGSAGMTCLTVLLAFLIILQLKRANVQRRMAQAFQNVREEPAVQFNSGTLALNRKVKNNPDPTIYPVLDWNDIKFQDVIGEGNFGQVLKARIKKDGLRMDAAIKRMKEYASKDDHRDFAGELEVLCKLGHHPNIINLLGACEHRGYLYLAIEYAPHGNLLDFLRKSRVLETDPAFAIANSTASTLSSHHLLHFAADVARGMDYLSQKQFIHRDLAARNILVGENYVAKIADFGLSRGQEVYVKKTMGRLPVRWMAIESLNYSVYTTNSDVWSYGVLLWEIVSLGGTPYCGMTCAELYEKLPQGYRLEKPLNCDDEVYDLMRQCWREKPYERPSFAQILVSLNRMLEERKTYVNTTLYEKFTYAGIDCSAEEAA
Chain of PDPK1 (human) (O15530 whole entry, looked up): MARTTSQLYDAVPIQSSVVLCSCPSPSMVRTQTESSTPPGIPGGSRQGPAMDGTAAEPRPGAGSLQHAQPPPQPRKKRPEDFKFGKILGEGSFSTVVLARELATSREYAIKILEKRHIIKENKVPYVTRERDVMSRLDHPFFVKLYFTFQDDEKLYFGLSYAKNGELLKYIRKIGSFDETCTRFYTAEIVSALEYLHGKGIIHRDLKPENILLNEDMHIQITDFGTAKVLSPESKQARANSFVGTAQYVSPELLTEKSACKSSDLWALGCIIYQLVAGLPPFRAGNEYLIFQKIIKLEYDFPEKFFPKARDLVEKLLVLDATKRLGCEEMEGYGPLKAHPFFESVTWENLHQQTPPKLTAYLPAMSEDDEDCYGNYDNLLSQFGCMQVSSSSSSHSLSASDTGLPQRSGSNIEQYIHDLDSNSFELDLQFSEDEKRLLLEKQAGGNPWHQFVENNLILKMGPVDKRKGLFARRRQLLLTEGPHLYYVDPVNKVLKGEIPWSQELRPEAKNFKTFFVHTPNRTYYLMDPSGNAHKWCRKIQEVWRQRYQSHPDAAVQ
Chain of NTRK1 (human) (P04629 whole entry, looked up): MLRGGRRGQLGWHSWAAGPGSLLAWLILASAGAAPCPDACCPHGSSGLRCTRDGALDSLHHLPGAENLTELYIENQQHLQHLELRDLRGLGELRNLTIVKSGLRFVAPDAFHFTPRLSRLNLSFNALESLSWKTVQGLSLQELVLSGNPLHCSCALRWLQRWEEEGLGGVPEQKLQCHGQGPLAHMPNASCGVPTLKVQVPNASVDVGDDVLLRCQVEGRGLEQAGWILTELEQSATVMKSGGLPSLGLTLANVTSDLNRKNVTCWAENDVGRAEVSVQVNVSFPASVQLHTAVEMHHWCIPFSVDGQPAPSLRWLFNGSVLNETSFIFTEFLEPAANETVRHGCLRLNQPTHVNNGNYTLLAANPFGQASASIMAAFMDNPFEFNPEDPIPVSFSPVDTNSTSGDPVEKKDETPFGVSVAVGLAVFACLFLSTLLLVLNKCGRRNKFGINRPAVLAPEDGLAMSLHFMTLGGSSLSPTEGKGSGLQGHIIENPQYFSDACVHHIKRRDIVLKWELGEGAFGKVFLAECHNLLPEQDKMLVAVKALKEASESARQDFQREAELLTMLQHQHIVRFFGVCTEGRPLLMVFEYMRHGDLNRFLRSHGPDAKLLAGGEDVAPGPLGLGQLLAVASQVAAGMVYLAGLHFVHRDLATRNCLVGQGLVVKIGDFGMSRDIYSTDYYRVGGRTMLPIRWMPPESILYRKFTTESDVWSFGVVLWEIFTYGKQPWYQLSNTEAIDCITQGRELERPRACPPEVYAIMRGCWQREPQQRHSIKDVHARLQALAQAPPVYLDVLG
Chain of CAMK4 (human) (Q16566 whole entry, looked up): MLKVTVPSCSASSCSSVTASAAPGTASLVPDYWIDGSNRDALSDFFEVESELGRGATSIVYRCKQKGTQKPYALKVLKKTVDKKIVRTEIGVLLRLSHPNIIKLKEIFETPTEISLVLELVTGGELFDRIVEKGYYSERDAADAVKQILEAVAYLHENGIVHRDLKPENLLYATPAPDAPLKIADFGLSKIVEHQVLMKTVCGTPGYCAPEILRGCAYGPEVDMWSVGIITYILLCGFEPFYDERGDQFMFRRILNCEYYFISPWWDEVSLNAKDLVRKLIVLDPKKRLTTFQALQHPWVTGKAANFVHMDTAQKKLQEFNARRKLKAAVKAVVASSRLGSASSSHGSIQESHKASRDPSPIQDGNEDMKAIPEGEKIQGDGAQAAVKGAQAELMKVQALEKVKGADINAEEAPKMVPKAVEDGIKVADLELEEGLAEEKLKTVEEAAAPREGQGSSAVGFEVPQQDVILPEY
Chain of FGFR1 (human) (P11362 whole entry, looked up): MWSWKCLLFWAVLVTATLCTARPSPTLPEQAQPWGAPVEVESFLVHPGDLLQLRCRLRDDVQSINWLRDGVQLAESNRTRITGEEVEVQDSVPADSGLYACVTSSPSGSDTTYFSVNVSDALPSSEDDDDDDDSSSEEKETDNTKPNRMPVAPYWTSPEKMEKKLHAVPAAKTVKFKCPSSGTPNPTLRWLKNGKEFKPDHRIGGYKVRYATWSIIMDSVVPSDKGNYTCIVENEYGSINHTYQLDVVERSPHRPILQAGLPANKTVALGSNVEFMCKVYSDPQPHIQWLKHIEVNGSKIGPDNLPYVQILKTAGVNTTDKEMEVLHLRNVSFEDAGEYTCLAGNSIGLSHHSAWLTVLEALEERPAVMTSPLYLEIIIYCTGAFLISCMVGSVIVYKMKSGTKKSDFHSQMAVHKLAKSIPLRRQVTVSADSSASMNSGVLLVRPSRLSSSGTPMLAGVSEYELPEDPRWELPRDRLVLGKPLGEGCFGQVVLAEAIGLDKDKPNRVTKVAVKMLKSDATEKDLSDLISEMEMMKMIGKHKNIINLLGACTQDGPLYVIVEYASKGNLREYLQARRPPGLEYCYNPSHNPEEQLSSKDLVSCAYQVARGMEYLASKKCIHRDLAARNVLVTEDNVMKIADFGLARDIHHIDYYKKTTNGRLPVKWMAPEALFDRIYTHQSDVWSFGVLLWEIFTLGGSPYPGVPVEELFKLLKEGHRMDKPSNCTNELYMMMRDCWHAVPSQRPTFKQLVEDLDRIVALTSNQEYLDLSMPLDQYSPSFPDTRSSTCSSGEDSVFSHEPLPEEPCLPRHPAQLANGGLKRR
Chain of MAPKAPK5 (human), Q8IW41 [R291E] (Q8IW41 whole entry, looked up, stated change not applied): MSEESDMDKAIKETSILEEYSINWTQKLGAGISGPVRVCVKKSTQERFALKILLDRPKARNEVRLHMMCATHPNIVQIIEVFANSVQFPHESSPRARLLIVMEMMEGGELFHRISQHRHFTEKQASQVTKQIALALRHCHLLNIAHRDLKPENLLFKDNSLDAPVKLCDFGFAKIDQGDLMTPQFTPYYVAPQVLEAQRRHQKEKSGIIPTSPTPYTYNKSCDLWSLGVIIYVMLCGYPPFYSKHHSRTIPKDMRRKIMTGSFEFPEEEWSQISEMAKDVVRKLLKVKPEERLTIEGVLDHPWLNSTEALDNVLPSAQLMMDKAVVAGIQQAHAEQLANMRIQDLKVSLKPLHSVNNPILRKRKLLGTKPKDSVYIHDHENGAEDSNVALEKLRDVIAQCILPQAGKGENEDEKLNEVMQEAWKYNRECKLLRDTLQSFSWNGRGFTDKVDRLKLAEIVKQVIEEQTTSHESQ

residual activity (PKN2 (human)): 92%
residual activity (RPS6KA4 KD1 KD2 (human)): 121%
residual activity [1]: 66%
residual activity (PRKCG (human)): 101%
residual activity (PDGFRA (human)): 59%
residual activity (FYN (human)): 64%
residual activity (SRPK2 (human)): 104%
residual activity (ITK (human)): 18%
residual activity [2]: 62%
residual activity [3]: 117%
residual activity (RPS6KA5 KD1 KD2 (human)): 101%
residual activity (RPS6KA2 KD1 KD2 (human)): 66%
residual activity [4]: 83%
residual activity (NEK11 (human)): 118%
residual activity (FGFR1 (human)): 5%
residual activity (PDGFRB (human)): 77%
residual activity (STK24 (human)): 102%
residual activity [5]: 103%
residual activity (CDK1 CCNB1 (human)): 66%
residual activity [6]: 71%
residual activity (HIPK3 (human)): 102%
residual activity (BMX (human)): 73%
residual activity (PRKD1 (human)): 93%
residual activity (YES1 (human)): 71%
residual activity (CAMK4 (human)): 98%
residual activity [7]: 100%
residual activity (SGK3 (human)): 94%
residual activity [8]: 93%
residual activity (NTRK1 (human)): 1%
residual activity (PLK3 (human)): 105%
residual activity (PDPK1 (human)): 105%
residual activity [9]: 97%
residual activity (CSNK2A2 (human)): 123%
residual activity (NEK7 (human)): 112%
residual activity [10]: 2%
residual activity (RPS6KA3 KD1 KD2 (human)): 76%
residual activity (CDK9 CCNT1 (human)): 107%
SMILES: CN(C)S(=O)(=O)Nc1ccc2ccc3ncc(-c4cnn(C)c4)cc3c(=O)c2c1

From the kinase profiling compilation of Christmann-Franck et al. (2016)
